Data: patent US11149067B2, “Tailored cyclodepsipeptides as potent non-covalent serine protease inhibitors” (UNIVERSITÄT DUISBURG-ESSEN, priority 2017, dated 2021)

Legend:
bovine pancreas trypsin = bovine pancreas trypsin (Bos taurus (Bovine), UniProt P00760); assay: Chromogenic enzyme activity assay, trypsin; type: biochemical; conditions: Table 2
human HTRA1 = human HTRA1 (Homo sapiens (Human), UniProt Q92743); assay: Chromogenic enzyme activity assay, HTRA1
human HTRA3 = human HTRA3 (Homo sapiens (Human), UniProt P83110); assay: Chromogenic enzyme activity assay, HTRA3
Sequence of human HTRA3 (P83110 111-436): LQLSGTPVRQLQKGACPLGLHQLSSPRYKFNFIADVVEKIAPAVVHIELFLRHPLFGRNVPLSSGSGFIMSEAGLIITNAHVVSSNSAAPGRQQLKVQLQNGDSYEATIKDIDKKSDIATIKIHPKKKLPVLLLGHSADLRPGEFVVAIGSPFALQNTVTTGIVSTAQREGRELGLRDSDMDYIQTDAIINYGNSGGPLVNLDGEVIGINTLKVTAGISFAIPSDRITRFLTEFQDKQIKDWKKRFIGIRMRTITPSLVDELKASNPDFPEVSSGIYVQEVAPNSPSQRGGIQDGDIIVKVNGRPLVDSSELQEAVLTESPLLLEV

[1] = biological target: human pancreas chymotrypsin; assay: Chromogenic enzyme activity assay, chymotrypsin; type: biochemical; conditions: for Ki: human pancreas chymotrypsin, Table 2
[2] = biological target: human neutrophil elastase (Homo sapiens (Human), UniProt P08246); assay: Chromogenic enzyme activity assay, elastase; type: biochemical; conditions: for Ki: human neutrophil elastase
Sequence of human neutrophil elastase (P08246 30-267): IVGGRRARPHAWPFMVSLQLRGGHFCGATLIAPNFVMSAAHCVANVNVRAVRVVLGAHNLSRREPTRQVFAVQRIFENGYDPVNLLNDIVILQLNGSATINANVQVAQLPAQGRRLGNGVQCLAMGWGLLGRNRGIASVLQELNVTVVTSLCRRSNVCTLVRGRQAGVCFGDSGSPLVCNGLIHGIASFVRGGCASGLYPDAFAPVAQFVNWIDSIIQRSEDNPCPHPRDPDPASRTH

human HTRA2 = human HTRA2 (Homo sapiens (Human), UniProt O43464); assay: Chromogenic enzyme activity assay, HTRA2; conditions: for fold gain in HTRA2 potency relative to Ahp1: compared with Ahp1
Sequence of human HTRA2 (O43464 134-458): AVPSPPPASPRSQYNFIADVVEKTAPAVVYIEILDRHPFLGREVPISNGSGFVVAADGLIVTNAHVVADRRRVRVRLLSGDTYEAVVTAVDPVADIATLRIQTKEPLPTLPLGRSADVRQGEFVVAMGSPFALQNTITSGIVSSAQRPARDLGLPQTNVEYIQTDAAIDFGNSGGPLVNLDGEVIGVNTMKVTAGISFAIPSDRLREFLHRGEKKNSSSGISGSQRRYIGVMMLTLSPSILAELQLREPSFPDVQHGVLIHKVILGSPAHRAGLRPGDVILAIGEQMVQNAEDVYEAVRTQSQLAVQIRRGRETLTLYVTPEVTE

[3] = tested on: human bone marrow-derived stromal cells (hBMSCs); assay: HTRA1-mediated hBMSC osteogenesis, matrix mineralization by Alizarin Red S staining; type: cell-based; conditions: 10 μM compound, with HTRA1 or inactive HTRA1 S328A
Method: Human BMSCs (hBMSCs) (Lonza Verviers, Belgium) were maintained in normal growth medium consisting of Dulbecco's modified eagle medium (DMEM-low glucose, with Glutamax) (Thermo Fisher Scientific, Reinach, Switzerland), supplemented with 10% fetal bovine serum (FBS) (Bioswisstec, Schaffhausen, Switzerland) and penicillin (50 units mL^−1) and streptomycin (50 μg mL^−1), and used between passage 2 and 6. The osteogenic differentiation of hBMSCs was performed as previously described in the art. Briefly, hBMSCs were seeded at 10′000 cells cm-2 in 24-well cell culture plates, and incubated for up to 14 days in osteogenic medium consisting of normal growth medium supplemented with ascorbic acid (50 μM), β-glycerophosphate (10 mM) and dexamethasone (100 nM) (all from Sigma-Aldrich, Buchs, Switzerland). Cells were replenished with fresh medium every 3-4 days. […] Mineralized matrix deposition by hBMSC-derived bone forming cells was visualized using Alizarin Red S, and the amount of staining quantified by determining the absorption at 570 nm using a multiplate reader (Infinite M200, Tecan) following extraction with 10% cetylpyridinium chloride (Sigma-Aldrich).

Sequence of bovine pancreas trypsin (P00760 24-246): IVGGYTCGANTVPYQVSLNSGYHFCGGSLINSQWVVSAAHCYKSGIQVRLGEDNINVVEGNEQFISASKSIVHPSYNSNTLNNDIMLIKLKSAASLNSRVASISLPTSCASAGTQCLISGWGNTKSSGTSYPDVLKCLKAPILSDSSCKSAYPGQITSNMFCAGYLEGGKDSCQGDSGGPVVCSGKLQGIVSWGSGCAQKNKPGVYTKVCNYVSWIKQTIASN
Sequence of human HTRA1 (Q92743 158-480): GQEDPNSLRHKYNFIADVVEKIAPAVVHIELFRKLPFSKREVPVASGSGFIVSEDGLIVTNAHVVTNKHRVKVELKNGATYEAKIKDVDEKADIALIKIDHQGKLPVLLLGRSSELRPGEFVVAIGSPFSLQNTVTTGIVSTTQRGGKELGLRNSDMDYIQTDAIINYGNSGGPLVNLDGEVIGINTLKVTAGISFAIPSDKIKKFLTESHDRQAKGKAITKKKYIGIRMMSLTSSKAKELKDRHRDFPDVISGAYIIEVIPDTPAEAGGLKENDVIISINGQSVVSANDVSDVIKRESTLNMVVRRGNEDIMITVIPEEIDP

| SMILES | Ki (bovine pancreas trypsin) [µM] | HTRA1 inhibition, in words (human HTRA1) | HTRA3 inhibition, in words (human HTRA3) | Ki [1] [µM] | elastase inhibition, in words [2] | chymotrypsin inhibition, in words [1] | HTRA2 inhibition, in words (human HTRA2) | Ki ([2]; Table 2) [nM] | Ki (human HTRA1) [µM] | Ki (human HTRA3) [µM] | Ki (human HTRA2) [nM] | fold gain in HTRA2 potency relative to Ahp1 (human HTRA2) | inhibition of HTRA1-mediated hBMSC osteogenesis (matrix mineralization) [3] | Ki ([2]; Table 3) [nM] |
| --- | --- | --- | --- | --- | --- | --- | --- | --- | --- | --- | --- | --- | --- | --- |
| CC(C)C[C@H]1C(=O)N(C)[C@@H](Cc2ccccc2)C(=O)N[C@@H](C(C)C)C(=O)O[C@H](C)[C@H](NC(=O)[C@H](C)NC(=O)[C@H](C)NC(=O)OCc2ccccc2)C(=O)N[C@@H](C(C)C)C(=O)N[C@H]2CC[C@@H](O)N1C2=O [Ahp1] | > 50 | inhibited | inhibited | > 50 |  |  |  |  |  |  |  |  |  |  |
| CC(C)C[C@H]1C(=O)N(C)[C@@H](Cc2ccccc2)C(=O)N[C@@H](C(C)C)C(=O)O[C@H](C)[C@H](NC(=O)[C@H](C)NC(=O)[C@H](C)NC(=O)OCc2ccccc2)C(=O)N[C@@H](Cc2ccccc2)C(=O)N[C@H]2CC[C@@H](O)N1C2=O [Ahp2] |  | significantly reduced | significantly reduced | 0.37 ± 0.08 | significantly reduced | enhanced chymotrypsin inhibition | significantly reduced |  |  |  |  |  |  |  |
| CC(C)C[C@H]1C(=O)N(C)[C@@H](Cc2ccccc2)C(=O)N[C@@H](C(C)C)C(=O)O[C@H](c2ccccc2)[C@H](NC(=O)[C@H](C)NC(=O)[C@H](C)NC(=O)OCc2ccccc2)C(=O)N[C@@H](C(C)C)C(=O)N[C@H]2CC[C@@H](O)N1C2=O [Ahp3] | > 50 |  | inhibited | > 50 |  |  |  | 210 ± 60 | > 50 | 3.1 ± 0.6 | 270 ± 70 |  |  |  |
| CC(C)C[C@H]1C(=O)N(C)[C@@H](Cc2ccccc2)C(=O)N[C@@H](C(C)C)C(=O)O[C@H](C)[C@H](NC(=O)[C@H](Cc2ccccc2)NC(=O)[C@H](C)NC(=O)OCc2ccccc2)C(=O)N[C@@H](C(C)C)C(=O)N[C@H]2CC[C@@H](O)N1C2=O [Ahp4] | > 50 |  |  | > 50 |  |  | sub-μM inhibition potencies | 330 ± 60 | > 50 | > 50 | 490 ± 110 | more than ten-fold |  |  |
| CC(C)[C@@H]1NC(=O)[C@@H](NC(=O)[C@H](C)NC(=O)[C@H](C)NC(=O)OCc2ccccc2)[C@@H](C)OC(=O)[C@H](C(C)C)NC(=O)[C@H](Cc2ccccc2)N(C)C(=O)[C@H](Cc2ccccc2)N2C(=O)[C@H](CC[C@H]2O)NC1=O [Ahp6] | > 50 | inhibited |  | > 50 |  |  |  | 8000 ± 1800 | 10.3 ± 3 | > 50 | 2100 ± 300 |  |  |  |
| CC(C)C[C@H]1C(=O)N(C)[C@@H](C)C(=O)N[C@@H](C(C)C)C(=O)O[C@H](C)[C@H](NC(=O)[C@H](C)NC(=O)[C@H](C)NC(=O)OCc2ccccc2)C(=O)N[C@@H](C(C)C)C(=O)N[C@H]2CC[C@@H](O)N1C2=O [Ahp7] | > 50 |  |  | > 50 | low μM or even sub-μM |  |  |  |  |  |  |  |  |  |
| CC(C)C[C@H]1C(=O)N(C)[C@@H](Cc2ccccc2)C(=O)N[C@@H](Cc2ccccc2)C(=O)O[C@H](C)[C@H](NC(=O)[C@H](C)NC(=O)[C@H](C)NC(=O)OCc2ccccc2)C(=O)N[C@@H](C(C)C)C(=O)N[C@H]2CC[C@@H](O)N1C2=O [Ahp8] | > 50 |  | inhibited | > 50 |  |  |  | 320 ± 50 | > 50 | 9.5 ± 0.9 | 2300 ± 200 |  |  |  |
| CC(C)C[C@@H]1NC(=O)[C@@H](NC(=O)[C@H](C)NC(=O)[C@H](C)NC(=O)OCc2ccccc2)[C@@H](C)OC(=O)[C@H](C(C)C)NC(=O)[C@H](Cc2ccccc2)N(C)C(=O)[C@H](CC(C)C)N2C(=O)[C@H](CC[C@H]2O)NC1=O [Ahp9] |  |  |  |  |  |  | slightly better HTRA2 inhibitory properties than Ahp1 |  |  |  |  |  |  |  |
| CC(C)C[C@H]1C(=O)N(C)[C@@H](Cc2ccccc2)C(=O)N[C@@H](C(C)C)C(=O)O[C@H](C(C)C)[C@H](NC(=O)[C@H](C)NC(=O)[C@H](C)NC(=O)OCc2ccccc2)C(=O)N[C@@H](C(C)C)C(=O)N[C@H]2CC[C@@H](O)N1C2=O [Ahp10] | > 50 | lowered the Ki |  | > 50 | lowered the Ki |  | sub-μM Ki |  |  |  |  | 15 fold | significantly inhibited |  |
| CC(C)C[C@H]1C(=O)N(C)[C@@H](Cc2ccccc2)C(=O)N[C@@H](C(C)C)C(=O)O[C@H](C(C)C)[C@H](NC(=O)[C@H](C)NC(=O)CCc2ccccc2)C(=O)N[C@@H](C(C)C)C(=O)N[C@H]2CC[C@@H](O)N1C2=O [Ahp11] |  |  | moderate inhibition |  |  |  | moderate inhibition |  |  |  |  |  |  |  |
| CC(C)C[C@H]1C(=O)N(C)[C@@H](Cc2ccccc2)C(=O)N[C@@H](C(C)C)C(=O)O[C@H](C)[C@H](NC(=O)[C@H](C)NC(=O)[C@H](C)NC(=O)OCc2ccccc2)C(=O)N[C@@H](C)C(=O)N[C@H]2CC[C@@H](O)N1C2=O [Ahp13] |  | enhanced inhibitory activity | enhanced inhibitory activity |  |  |  | enhanced inhibitory activity |  |  |  |  |  |  |  |
| CC[C@@H]1NC(=O)[C@@H](NC(=O)[C@H](C)NC(=O)[C@H](C)NC(=O)OCc2ccccc2)[C@@H](C)OC(=O)[C@H](C(C)C)NC(=O)[C@H](Cc2ccccc2)N(C)C(=O)[C@H](CC(C)C)N2C(=O)[C@H](CC[C@H]2O)NC1=O [Ahp14] |  | enhanced inhibitory activity | enhanced inhibitory activity |  |  |  | enhanced inhibitory activity |  |  |  |  |  |  |  |
| CC(C)C[C@H]1C(=O)N(C)[C@@H](Cc2ccccc2)C(=O)N[C@@H](C(C)C)C(=O)O[C@H](C)[C@H](NC(=O)[C@H](C)NC(=O)[C@H](C)NC(=O)OCc2ccccc2)C(=O)N[C@@H](C2CC2)C(=O)N[C@H]2CC[C@@H](O)N1C2=O [Ahp19] |  | enhanced inhibitory activity | enhanced inhibitory activity |  |  |  | enhanced inhibitory activity |  | 1.24 | 0.74 | 1110 |  |  | 1930 |
| CC(C)C[C@H]1C(=O)N(C)[C@@H](Cc2ccccc2)C(=O)N[C@@H](C(C)C)C(=O)O[C@H](C)[C@H](NC(=O)[C@H](C)NC(=O)[C@H](C)NC(=O)OCc2ccccc2)C(=O)N[C@@H](C(C)(C)C)C(=O)N[C@H]2CC[C@@H](O)N1C2=O [Ahp20] |  |  |  |  |  |  |  |  | > 50 | 8.3 | > 50000 |  |  | 4320 |
